Assay results from publication PMC7486443, “Generation of Phenothiazine with Potent Anti-TLK1 Activity for Prostate Cancer Therapy” (iScience, 2020).

Experiments:
Test in all cases: biochemical
Set-up in all cases: DiscoverX KINOMEscan scanMAX competition binding panel, single concentration, percent of control; remaining binding: dose or concentration left out as unconfirmed
Settings in all cases: KINOMEscan binding, percent of control; read-out: Table S4_SCANMAX REPORT - related to Fig. 1 / Percent Control
MARK3 = MARK3 (Homo sapiens, UniProt P27448)
PCTK2 = target: T1, PCTK2 (Homo sapiens, UniProt Q00537)
T1 construct: gene CDK17

KIT(D816H) = KIT(D816H) (Homo sapiens, UniProt P10721, D816H)
HIPK1 = HIPK1 (Homo sapiens, UniProt Q86Z02)
FLT4 = FLT4 (Homo sapiens, UniProt P35916)
FLT3 = FLT3 (Homo sapiens, UniProt P36888)
p38-alpha = target: T2, p38-alpha (Homo sapiens, UniProt Q16539)
T2 construct: gene MAPK14

[1] = target: T3, ABL1(F317I)-phosphorylated (Homo sapiens, UniProt P00519, F317I)
T3 construct: phosphorylated

[2] = target: T4, RPS6KA4(Kin.Dom.2-C-terminal) (Homo sapiens, UniProt O75676)
T4 construct: Kin.Dom.2-C-terminal

NIM1 = target: T5, NIM1 (Homo sapiens, UniProt Q8IY84)
T5 construct: gene NIM1K

ALK(C1156Y) = ALK(C1156Y) (Homo sapiens, UniProt Q9UM73, C1156Y)
YANK1 = target: T6, YANK1 (Homo sapiens, UniProt Q8WU08)
T6 construct: gene STK32A

CDK8 = CDK8 (Homo sapiens, UniProt P49336)
DRAK1 = target: T7, DRAK1 (Homo sapiens, UniProt Q9UEE5)
T7 construct: gene STK17A

DMPK2 = target: T8, DMPK2 (Homo sapiens, UniProt Q6DT37)
T8 construct: gene CDC42BPG

NEK6 = NEK6 (Homo sapiens, UniProt Q9HC98)
[3] = target: T9, ABL1(Q252H)-nonphosphorylated (Homo sapiens, UniProt P00519, Q252H)
T9 construct: nonphosphorylated

FER = FER (Homo sapiens, UniProt P16591)

T2 sequence (Q16539 whole entry): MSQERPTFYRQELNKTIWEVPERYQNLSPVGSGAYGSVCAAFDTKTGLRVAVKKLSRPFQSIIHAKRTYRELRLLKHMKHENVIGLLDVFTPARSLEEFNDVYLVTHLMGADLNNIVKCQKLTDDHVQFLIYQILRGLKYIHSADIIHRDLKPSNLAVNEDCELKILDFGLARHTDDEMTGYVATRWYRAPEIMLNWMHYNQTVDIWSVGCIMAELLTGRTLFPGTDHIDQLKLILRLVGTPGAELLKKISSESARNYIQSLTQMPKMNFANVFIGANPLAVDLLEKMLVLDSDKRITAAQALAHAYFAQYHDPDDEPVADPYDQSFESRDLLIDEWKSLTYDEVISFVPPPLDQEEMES
NEK6, sequence (Q9HC98 whole entry): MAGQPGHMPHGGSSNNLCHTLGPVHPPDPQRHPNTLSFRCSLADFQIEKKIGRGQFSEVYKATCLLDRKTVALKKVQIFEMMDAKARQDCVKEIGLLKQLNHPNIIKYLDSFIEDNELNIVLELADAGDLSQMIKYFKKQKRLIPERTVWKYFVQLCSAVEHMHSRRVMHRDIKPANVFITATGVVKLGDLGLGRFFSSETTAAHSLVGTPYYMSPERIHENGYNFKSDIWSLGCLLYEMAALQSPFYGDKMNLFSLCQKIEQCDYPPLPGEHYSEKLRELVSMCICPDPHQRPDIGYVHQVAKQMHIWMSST
FLT3, sequence (P36888 whole entry): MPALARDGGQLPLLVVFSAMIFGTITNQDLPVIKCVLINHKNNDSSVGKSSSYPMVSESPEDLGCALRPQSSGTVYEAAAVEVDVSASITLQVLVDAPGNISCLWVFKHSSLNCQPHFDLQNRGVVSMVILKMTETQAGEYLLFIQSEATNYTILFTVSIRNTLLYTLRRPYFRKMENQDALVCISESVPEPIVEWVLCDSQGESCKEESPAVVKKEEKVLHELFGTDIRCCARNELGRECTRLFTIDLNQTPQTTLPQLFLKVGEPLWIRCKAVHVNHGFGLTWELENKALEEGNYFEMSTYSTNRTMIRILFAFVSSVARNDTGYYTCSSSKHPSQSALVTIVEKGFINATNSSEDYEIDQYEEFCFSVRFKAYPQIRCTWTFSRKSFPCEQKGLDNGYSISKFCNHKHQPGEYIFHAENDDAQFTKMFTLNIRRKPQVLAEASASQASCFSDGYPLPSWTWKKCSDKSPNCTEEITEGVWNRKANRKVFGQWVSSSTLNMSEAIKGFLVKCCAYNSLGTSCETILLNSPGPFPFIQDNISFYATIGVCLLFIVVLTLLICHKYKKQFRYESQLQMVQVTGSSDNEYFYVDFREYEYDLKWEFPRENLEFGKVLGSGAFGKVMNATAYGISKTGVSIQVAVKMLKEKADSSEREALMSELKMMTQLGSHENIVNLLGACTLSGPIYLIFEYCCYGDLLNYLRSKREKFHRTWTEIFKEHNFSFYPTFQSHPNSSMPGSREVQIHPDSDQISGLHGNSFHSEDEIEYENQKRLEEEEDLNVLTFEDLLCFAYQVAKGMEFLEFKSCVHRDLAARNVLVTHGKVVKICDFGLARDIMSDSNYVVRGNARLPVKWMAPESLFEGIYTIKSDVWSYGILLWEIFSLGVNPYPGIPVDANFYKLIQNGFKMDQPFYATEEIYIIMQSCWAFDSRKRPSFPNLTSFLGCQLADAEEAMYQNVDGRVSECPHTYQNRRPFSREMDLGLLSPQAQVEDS
MARK3, sequence (P27448 whole entry): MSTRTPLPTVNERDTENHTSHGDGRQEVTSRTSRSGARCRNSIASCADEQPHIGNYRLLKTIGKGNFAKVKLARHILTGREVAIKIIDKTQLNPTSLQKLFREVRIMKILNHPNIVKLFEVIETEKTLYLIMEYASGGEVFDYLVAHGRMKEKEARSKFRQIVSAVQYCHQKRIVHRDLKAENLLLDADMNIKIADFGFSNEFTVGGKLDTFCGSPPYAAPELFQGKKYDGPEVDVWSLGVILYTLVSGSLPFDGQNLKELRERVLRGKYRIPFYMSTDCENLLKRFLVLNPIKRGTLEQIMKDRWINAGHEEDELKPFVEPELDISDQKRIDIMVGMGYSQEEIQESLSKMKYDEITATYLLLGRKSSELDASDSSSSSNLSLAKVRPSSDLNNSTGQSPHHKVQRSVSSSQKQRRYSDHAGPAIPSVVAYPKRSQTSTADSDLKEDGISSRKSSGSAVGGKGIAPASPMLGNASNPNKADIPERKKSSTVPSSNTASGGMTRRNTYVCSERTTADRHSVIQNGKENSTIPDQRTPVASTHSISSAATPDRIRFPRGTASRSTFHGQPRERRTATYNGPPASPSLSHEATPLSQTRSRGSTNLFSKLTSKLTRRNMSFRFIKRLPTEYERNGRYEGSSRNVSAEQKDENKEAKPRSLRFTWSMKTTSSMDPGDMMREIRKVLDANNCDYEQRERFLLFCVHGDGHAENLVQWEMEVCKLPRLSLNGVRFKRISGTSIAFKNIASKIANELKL
T1 sequence (Q00537 whole entry): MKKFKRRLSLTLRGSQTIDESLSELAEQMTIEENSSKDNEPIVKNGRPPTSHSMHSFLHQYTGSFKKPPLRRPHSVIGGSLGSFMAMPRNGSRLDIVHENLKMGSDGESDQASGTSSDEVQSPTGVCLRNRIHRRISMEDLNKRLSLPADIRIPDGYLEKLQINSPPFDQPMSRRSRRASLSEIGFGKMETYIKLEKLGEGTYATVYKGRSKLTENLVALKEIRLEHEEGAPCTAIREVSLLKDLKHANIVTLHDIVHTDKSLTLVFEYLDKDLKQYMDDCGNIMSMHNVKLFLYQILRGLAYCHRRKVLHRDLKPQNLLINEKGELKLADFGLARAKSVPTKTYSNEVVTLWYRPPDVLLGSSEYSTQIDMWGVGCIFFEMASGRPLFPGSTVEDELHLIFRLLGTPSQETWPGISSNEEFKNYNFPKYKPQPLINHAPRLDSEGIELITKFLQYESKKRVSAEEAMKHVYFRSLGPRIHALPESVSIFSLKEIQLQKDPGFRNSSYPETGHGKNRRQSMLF
T4 sequence (O75676 whole entry): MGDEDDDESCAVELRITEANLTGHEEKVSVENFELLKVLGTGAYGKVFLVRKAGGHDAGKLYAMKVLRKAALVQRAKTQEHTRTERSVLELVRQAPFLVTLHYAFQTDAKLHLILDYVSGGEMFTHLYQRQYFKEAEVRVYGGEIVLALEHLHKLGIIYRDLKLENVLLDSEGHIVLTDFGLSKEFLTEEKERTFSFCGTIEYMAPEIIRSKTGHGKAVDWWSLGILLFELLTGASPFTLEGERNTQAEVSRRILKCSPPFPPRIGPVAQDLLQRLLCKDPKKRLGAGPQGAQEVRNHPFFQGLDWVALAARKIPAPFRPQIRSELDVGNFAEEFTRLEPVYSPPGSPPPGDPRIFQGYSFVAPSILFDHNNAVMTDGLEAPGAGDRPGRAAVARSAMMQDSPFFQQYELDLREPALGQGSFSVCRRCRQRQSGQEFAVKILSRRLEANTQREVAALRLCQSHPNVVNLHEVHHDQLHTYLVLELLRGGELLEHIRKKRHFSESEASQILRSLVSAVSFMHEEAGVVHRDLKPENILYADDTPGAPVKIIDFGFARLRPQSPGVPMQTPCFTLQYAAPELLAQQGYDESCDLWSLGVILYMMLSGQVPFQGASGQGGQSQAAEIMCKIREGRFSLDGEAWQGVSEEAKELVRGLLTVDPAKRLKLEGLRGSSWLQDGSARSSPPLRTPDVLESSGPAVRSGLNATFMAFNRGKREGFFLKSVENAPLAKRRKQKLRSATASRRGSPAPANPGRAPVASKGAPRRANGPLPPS
T5 sequence (Q8IY84 whole entry): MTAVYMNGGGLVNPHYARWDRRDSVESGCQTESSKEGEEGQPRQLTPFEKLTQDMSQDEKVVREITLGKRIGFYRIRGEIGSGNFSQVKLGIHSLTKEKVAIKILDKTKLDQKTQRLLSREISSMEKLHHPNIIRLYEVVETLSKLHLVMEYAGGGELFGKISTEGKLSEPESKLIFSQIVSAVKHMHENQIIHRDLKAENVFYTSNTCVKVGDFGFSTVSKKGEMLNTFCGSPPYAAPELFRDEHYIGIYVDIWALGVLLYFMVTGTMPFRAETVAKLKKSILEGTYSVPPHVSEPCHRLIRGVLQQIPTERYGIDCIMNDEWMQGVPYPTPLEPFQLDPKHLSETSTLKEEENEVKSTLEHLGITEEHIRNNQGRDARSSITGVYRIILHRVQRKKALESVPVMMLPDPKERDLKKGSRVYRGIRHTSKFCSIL
CDK8, sequence (P49336 whole entry): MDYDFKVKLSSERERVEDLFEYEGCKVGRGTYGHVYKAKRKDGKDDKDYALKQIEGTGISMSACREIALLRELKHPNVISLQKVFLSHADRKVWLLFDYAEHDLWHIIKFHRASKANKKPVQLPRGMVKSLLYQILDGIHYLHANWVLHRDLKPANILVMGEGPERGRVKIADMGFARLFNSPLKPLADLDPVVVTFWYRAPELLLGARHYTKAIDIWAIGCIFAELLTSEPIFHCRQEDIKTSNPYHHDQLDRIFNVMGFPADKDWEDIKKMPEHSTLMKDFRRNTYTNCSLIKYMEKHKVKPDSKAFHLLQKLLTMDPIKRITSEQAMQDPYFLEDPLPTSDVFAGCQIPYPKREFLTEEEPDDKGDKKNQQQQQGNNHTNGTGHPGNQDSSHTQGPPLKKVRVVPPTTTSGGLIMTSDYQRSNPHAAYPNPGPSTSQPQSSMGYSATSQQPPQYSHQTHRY
T6 sequence (Q8WU08 whole entry): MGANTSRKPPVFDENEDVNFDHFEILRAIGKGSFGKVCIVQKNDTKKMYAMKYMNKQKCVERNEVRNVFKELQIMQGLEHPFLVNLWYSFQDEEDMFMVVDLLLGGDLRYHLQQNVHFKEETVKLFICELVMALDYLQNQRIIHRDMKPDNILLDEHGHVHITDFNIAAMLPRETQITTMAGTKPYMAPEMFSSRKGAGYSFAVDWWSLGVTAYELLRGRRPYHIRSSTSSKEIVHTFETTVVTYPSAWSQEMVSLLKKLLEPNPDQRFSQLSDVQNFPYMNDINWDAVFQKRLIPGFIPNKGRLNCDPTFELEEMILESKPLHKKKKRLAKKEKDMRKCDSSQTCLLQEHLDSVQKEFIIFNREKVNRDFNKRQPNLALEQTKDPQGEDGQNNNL

SMILES: c1ccc2c(c1)Sc1ccccc1N2CCN1CCOCC1 [J54]
- remaining binding (MARK3): 100%
- remaining binding (PCTK2): 100%
- remaining binding (KIT(D816H)): 62%
- remaining binding (HIPK1): 85%
- remaining binding (FLT4): 96%
- remaining binding (FLT3): 100%
- remaining binding (p38-alpha): 100%
- remaining binding [1]: 100%
- remaining binding [2]: 94%
- remaining binding (NIM1): 100%
- remaining binding (ALK(C1156Y)): 100%
- remaining binding (YANK1): 91%
- remaining binding (CDK8): 100%
- remaining binding (DRAK1): 89%
- remaining binding (DMPK2): 89%
- remaining binding (NEK6): 92%
- remaining binding [3]: 78%
- remaining binding (FER): 100%
